# Measurements reported in patent US20090247527A1, “SUBSTITUTED GAMMA LACTAMS AS THERAPEUTIC AGENTS” (ALLERGAN, INC., priority 2008, published 2009).
# “Also recorded” adds a separate entry of the source.
# Test system: lashes and adjacent hairs of patients having glaucoma
# Assay: Observation of lashes and adjacent hairs in glaucoma patients treated with bimatoprost in one eye
# Format: in vivo, human
# Conditions: glaucoma patients treated unilaterally; gross inspection and slit lamp biomicroscope
# Text: In the course of treating patients having glaucoma, treatment may only be appropriate in one eye. […] The lash appearance on the lids of the treated eyes would have appeared quite attractive if it represented a bilateral phenomenon. As a result of its asymmetric nature, the long lashes on one side could be construed as disturbing from a cosmetic standpoint. A systemic examination was preformed as a result of the asymmetric phenomenon. It soon became apparent that this altered appearance was not an isolated finding. […] Definite differences could be identified to varying degrees in the lashes and adjacent hairs of all patients who were taking the drug on a unilateral basis for longer than 6 months.
# The changes in the lashes were apparent on gross inspection in several patients once attention was focused on the issue. In those with light colored hair and lashes, the differences were only seen easily with the aid of the high magnification and lighting capabilities of the slit lamp biomicroscope. In the course of glaucoma follow-up examination, attention is generally immediately focused on the eye itself. As a result of the high power magnification needed only one eye is seen at a time and the eye is seen at a high enough power that the lashes are not in focus. […]
smiles,measurement,value
CCNC(=O)CCC/C=C\C[C@@H]1[C@@H](/C=C/[C@@H](O)CCc2ccccc2)[C@H](O)C[C@@H]1O [bimatoprost],lash / hair growth in treated eye versus non-treated eye,"longer, thicker, and fuller in the treated eye than in the non-treated eye; also recorded: hair growth is stimulated"
